Several values for one entry are separate records, joined by “and”; a condition that tells them apart may be missing. Equal entries are not always repeated. Where two headings read alike, the source gives them in different places.
Experiments:
NCI-H460 tumors = test: NCI-H460 subcutaneous xenograft
SF767T cells = test: cells; conditions: Homo sapiens
NCI-H460 cells = test: cells; conditions: Homo sapiens
c-kit = molecular target: T1, c-kit (Homo sapiens, UniProt P10721); test: SCF-stimulated c-kit phosphorylation in AML blasts of patients; assay type: cell-based; conditions: AML blasts from peripheral blood of patients
T1 construct: was determined using MO7E cells that express this receptor; endogenous in cells; host or cells: MO7E

SF763T tumors = test: SF763T subcutaneous xenograft; assay type: in vivo, athymic mice
HT29 cells = test: cells; conditions: Homo sapiens, HT-29
Colo205 tumors = test: Colo205 subcutaneous xenograft
A549 cells = test: cells; conditions: Homo sapiens
B16-F1 cells = test: B16-F1 mouse melanoma lung colonization model; assay type: in vivo, athymic mice; conditions: 80 mg/kg/day oral for 24 days; P <0.001
Text: In addition to supporting the sustained growth of solid primary tumors, angiogenesis is also an essential component supporting the development of disseminated disease due to metastasis from the primary tumor. […] In this model, B16-F1 cells inoculated intravenously via the tail vein of athymic mice colonize the lungs and form tumors. […] .
Briefly, the results shown in Table 8 were obtained using athymic mice that had been inoculated with B16-F1 tumor cells (5×10^5 cells/mouse) via the tail vein. […] . At the end of the treatment period, the mice were sacrificed and their lungs removed and weighed. […] .

HUVECs = test: VEGF-mediated HUVEC survival (PARP cleavage); assay type: cell-based, human; conditions: PARP cleavage as readout for apoptosis
Text: In these experiments, cleavage of the caspase 3 substrate poly-ADP-ribosyl polymerase (PARP) was used as a readout for apoptosis.

T1 sequence (P10721 26-976): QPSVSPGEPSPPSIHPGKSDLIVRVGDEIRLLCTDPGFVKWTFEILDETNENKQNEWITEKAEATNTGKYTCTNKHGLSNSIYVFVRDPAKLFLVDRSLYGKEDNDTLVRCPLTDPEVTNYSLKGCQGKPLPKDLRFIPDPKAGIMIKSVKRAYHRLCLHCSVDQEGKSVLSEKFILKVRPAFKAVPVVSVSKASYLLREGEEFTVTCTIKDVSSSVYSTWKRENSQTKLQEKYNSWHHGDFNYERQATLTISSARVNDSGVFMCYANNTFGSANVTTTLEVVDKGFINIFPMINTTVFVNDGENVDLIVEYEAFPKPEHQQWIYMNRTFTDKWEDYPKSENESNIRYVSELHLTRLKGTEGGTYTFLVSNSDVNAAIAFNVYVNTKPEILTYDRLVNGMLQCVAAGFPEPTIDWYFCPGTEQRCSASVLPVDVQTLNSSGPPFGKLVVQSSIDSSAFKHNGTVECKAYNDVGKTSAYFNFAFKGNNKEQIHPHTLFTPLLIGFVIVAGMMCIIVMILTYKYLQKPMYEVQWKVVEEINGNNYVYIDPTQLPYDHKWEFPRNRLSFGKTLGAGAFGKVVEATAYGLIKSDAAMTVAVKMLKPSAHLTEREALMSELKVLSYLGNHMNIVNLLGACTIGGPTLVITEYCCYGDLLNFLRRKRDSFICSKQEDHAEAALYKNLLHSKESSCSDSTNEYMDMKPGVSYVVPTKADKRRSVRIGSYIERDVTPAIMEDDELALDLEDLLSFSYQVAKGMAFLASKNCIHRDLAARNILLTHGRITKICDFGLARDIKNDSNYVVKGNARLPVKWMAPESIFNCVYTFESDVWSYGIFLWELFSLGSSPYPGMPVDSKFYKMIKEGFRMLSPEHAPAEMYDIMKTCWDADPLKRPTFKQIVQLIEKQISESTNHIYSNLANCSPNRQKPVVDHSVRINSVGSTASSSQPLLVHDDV

Structure (SMILES): CCN(CC)CCNC(=O)c1c(C)[nH]c(/C=C2\C(=O)Nc3ccc(F)cc32)c1C [Compound 80]
- tumor response to treatment (NCI-H460 tumors; 80 mg/kg/day oral): arrested or greatly slowed
- % Inhibition (NCI-H460 tumors; initial tumor volume 300 mm^3, 80 mg/kg once daily oral, day 54, P 0.003): 61 (54) %
- IC50 (SF767T cells): 7.9 µM
- IC50 (NCI-H460 cells): 8.9 µM
- SCF-stimulated c-kit phosphorylation (c-kit): inhibited
- tumor response to treatment (SF763T tumors; 80 mg/kg/day oral): arrested or greatly slowed
- % Inhibition (SF763T tumors; initial tumor volume 550 mm^3, 80 mg/kg once daily oral, day 30, P 0.001): 53 (30) %
- PDGFRβ tyrosine phosphorylation in established tumors (SF763T tumors; oral administration): strongly inhibited
- levels of phosphorylated (activated) phospholipase C gamma (PLC-γ) in tumors (SF763T tumors; oral administration): reduced
- IC50 (HT29 cells): 10 µM
- tumor response to treatment (A431 tumors; 80 mg/kg/day oral): regressed
- efficacy against established A431 tumors versus 80 mg/kg/day dose (A431 tumors; 160 mg/kg/day, preliminary experiments): not more efficacious
- complete regression of the tumors (A431 tumors; initial 100 mm^3, 80 mg/kg/day for 21 days): six of the eight animals
- % Inhibition of tumor growth (A431 tumors; initial tumor volume 100 mm^3, 10 mg/kg/day oral, day 40, P 0.059): 61 (40) %
- % Inhibition of tumor growth (A431 tumors; initial tumor volume 100 mm^3, 40 mg/kg/day oral, day 40, P 0.015): 75 (40) %
- % Inhibition of tumor growth (A431 tumors; initial tumor volume 100 mm^3, 80 mg/kg/day oral, day 40, P 0.002): 93 (40) %
- % Inhibition of tumor growth (A431 tumors; initial tumor volume 400 mm^3, 20 mg/kg/day oral, day 36, P 0.130): 51 (36) %
- % Inhibition of tumor growth (A431 tumors; initial tumor volume 400 mm^3, 40 mg/kg/day oral, day 36, P 0.003): 74% and 74 (36) %
- % Inhibition of tumor growth (A431 tumors; initial tumor volume 400 mm^3, 80 mg/kg/day oral, day 36, P 0.001): 84% and 84 (36) %
- tumor regrowth after end of treatment (A431 tumors; the six animals with complete regression): did not regrow during a 110-day observation period
- response of regrown tumors to a second round of treatment (A431 tumors; two animals with tumors regrown to 2000-3000 mm^3): regressed
- % Inhibition (Colo205 tumors; 40 mg/kg daily oral, tumors 400 mm^3 at start, P 0.028): 84%
- % Inhibition (Colo205 tumors; 40 mg/kg twice weekly oral, tumors 400 mm^3 at start, NS): 36%
- % Inhibition (Colo205 tumors; 80 mg/kg daily oral, tumors 400 mm^3 at start, P 0.039): 91%
- % Inhibition (Colo205 tumors; 80 mg/kg once weekly oral, tumors 400 mm^3 at start, NS): 0%
- % Inhibition (Colo205 tumors; 80 mg/kg twice weekly oral, tumors 400 mm^3 at start, NS): 19%
- tumor response to treatment (Colo205 tumors; 80 mg/kg/day oral): regressed
- % Inhibition (Colo205 tumors; 160 mg/kg once weekly oral, tumors 400 mm^3 at start, NS): 17%
- % Inhibition (Colo205 tumors; 160 mg/kg twice weekly oral, tumors 400 mm^3 at start, P 0.085): 52%
- % Inhibition (Colo205 tumors; initial tumor volume 370 mm^3, 80 mg/kg once daily oral, day 54, P 0.028): 77 (54) %
- IC50 (A549 cells): 9.5 µM
- % Inhibition (lung weight) (B16-F1 cells): 50%
- effect on VEGF-mediated HUVEC survival (HUVECs): inhibited VEGF-mediated HUVEC survival in a dose-dependent manner

From patent US7320996B2, “Indolinone protein kinase inhibitors and cyclooxygenase inhibitors for use in combination therapy for the treatment of cancer” (Sugen, Inc, priority 2001, dated 2008)
